# ChEMBL document CHEMBL5131448, “Tumor-microenvironmental-response Bi-functional molecules for efficient imaging and anti-tumor activity therapy” (Eur J Med Chem, 2022)
# Calls of active or inactive are those of the source. The rule behind the calls is not given here.
# Columns and labels:
# EA.hy 926 [1] = assay: Induction of cell cycle arrest in human EA.hy 926 cells assessed as accumulation of cells at G1-pahse at 0.1 to 40 uM measured after 72 hrs by propidium iodide staining method; assay type: functional, cell-based; conditions: dose 0.1-40 µM
# HEK293 = assay: Cytotoxicity against human HEK293 cells measured after 72 hrs by MTT assay; assay type: toxicity, cell-based; conditions: hek293, 72 h
# EA.hy 926 [2] = assay: Effect on cell apoptosis in human EA.hy 926 cells assessed as promotion of apoptosis at 0.1 to 40 uM measured after 72 hrs by Annexin V-FITC/propidium iodide staining based flow cytometry; assay type: functional; conditions: dose 0.1-40 µM
# HeLa = assay: Antiproliferative activity against human HeLa cells after 72 hrs by MTT assay; assay type: functional, cell-based
# MDA-MB-231 = assay: Antiproliferative activity against human MDA-MB-231 cells after 72 hrs by MTT assay; assay type: functional, cell-based; conditions: MDA-MB-231, 72 h
# A549 = assay: Antiproliferative activity against human A549 cells after 72 hrs by MTT assay; assay type: functional, cell-based; conditions: A549, 72 h
# EA.hy 926 [3] = assay: Antiproliferative activity against human EA.hy 926 cells after 72 hrs by MTT assay; assay type: functional, cell-based; conditions: EA.hy 926, 72 h
Compound,Activity (EA.hy 926 [1]),Activity (HEK293),Activity (EA.hy 926 [2]),IC50 (HeLa),IC50 (MDA-MB-231),IC50 (A549),IC50 (EA.hy 926 [3])
COc1ccc(-c2ccc(Cn3cc(-c4cccc(N)c4)nn3)cc2)cn1,Active,Non-Toxic,Active,,,,
CCN(CC)c1ccc2c(-c3ccccc3C(=O)NCCCCNC(=O)CSSCC(=O)n3nc(N)c4c(-c5ccc(NC(=O)Nc6cc(C)ccc6F)cc5)cccc43)c3ccc(=[N+](CC)CC)cc-3oc2c1,Active,Non-Toxic,Active,128 µM,85 µM,22.1 µM,0.03 µM
CCN(CC)c1ccc2c(-c3ccccc3C(=O)NCCCCNC(=O)CSSCC(=O)Nc3cccc(-c4cn(Cc5ccc(-c6ccc(OC)nc6)cc5)nn4)c3)c3ccc(=[N+](CC)CC)cc-3oc2c1,Active,Non-Toxic,Active,15.8 µM,35.9 µM,,2.96 µM
